The text below walks through data of article PMC9286045 (Journal of Peptide Science, 2021).

The test system of data set [1] is OXT-receptor compartment of the potassium depolarized rat myometrium. The data set is described as follows: Oil-immersion (stopped-transport) and washout time–response experiments on myometrium strips. The settings on record: for Cumulative clearance k r + κ / k r (transport rate constant between receptor compartment and aqueous medium) / κ Observed (irreversible clearance rate constant in the receptor compartment): K+-depolarized rat myometrium strip ex vivo, 30°C, arithmetic mean ± SD of computation runs; for Cumulative clearance k r + κ: washout decay phase; for k r (transport rate constant between receptor compartment and aqueous medium): from combined oil-immersion and washout data; for κ Observed (irreversible clearance rate constant in the receptor compartment): high potassium Ringer medium (Ca2+, Mg2+ 0.5 mM), oil-immersion decay phase, isometric tension, nonlinear regression; for κ (N) − κ (D): κ-difference of coherent N & D pairs, value shared by both peptides of the pair, C1,6OT/DC1,6OT pair uses predicted κ.
Source text: (§1) Female virgin Sprague–Dawley rats (body weight approximately 200 g) in natural oestrus (detected by vaginal smears) were sacrificed by decapitation, both uterus horns were dissected and the perimetrium was pulled off. Their middle sections (approximately 15 mm) were longitudinally cut into 3‐ to 4‐mm strips; the endometrium (the inward layer of the horns) was removed by scraping. In average, three strips of each animal (31 rats in total) were used in the experiments.
(§2) A stripe was mounted in an adapted annealed organ chamber (17 mm × 65 mm) with a ventilation inlet tube containing 10‐ml Munsick medium (see above) and attached to an isometric force transducer. The basic tension was adjusted to 10 ± 0.2 mN (1 gf, gram‐force). Measurements were carried out at 30°C under continuous ventilation with Carbogen gas (25% O2 + 5% CO2). […] Each strip used for stimulation by a single peptide (for concentration of stimulating agents, cf. Table 2). Oil‐immersion and washout experiments were carried out on different strips from the same animal. Stimulation runs (two to four per strip) for each peptide were repeated on strips of different rat uteri.
(§3) Tonic contraction of the depolarized myometrium strips in a high potassium Ringer organ bath medium[46] (concentration of Ca^2+ and of Mg^2+: 0.5 mM) was elicited by roughly equipotent concentrations of single peptides around their D 2 values (the concentration causes the half of the maximally attainable contraction in oestrogen‐dominated myometrium). After reaching a steady‐state level (stimulation phase), the medium was exchanged by a low viscosity paraffin oil (oil‐immersion phase) or alternatively by the peptide‐free bath medium (washout phase). The time‐tension profiles of the strip were recorded by an isometric force transducer (Statham strain gauge UC3).
(§4) We employed here its modified version focused on the comparison of clearance and transport rate constants (Figure 2). It consists virtually of two distribution spaces: the receptor compartment (subscript r; see Section 4) and the external aqueous tissue medium (w). The rate of mass transport of agents through the tissue‐medium interface (transport constants k r , k w ) is directly proportional to the rate constant of diffusion k (dimension: volume/time) and inversely proportional to the respective compartment volume V r , V w : for the receptor compartment k r = k/V r , for the medium k w = k/V w . The constant κ relates to the (irreversible) clearance rate from the receptor compartment (dimension: time^−1). The rate equations determining the time response of the peptide concentrations in the corresponding compartments (c r , c w ) are then (1a) c˙w=−kcw−cr/Vw, (1b) c˙r=kcw−cr/Vr−κcr, wherein dotted symbols denote first derivatives with respect to time t: x˙≡dx/dt . • In the stimulation phase, concentration c w is expected to be constant, c w = c 0 (and c˙w=0 ) within the time interval of stimulation; the integration of Equation 1b yields (2) crt=cr,∞1−e^−kr+κt, where c r,∞ is a steady state value of c r , (3) cr,∞≡limt→∞crt=c0kr/kr+κ.
(§5) • In the wash‐out decay phase, the concentration in the external medium (c w ) is kept zero by a quick perifusion; c r,∞ is the initial value (t = 0), i.e., a c r steady state value before termination of the stimulation phase, (4) crt=cr,∞e^−kr+κt.
(§6) The sum k r + κ stands for the cumulative clearance rate constant of the peptide in the receptor compartment. • The insertion of oil (oil‐immersion decay phase) reduces the volume V w to a small residual aqueous layer v w around the tissue; obviously, v w ≪ V w and the corresponding modified mass transport rate constant kw′=k/vw is very large, limvw→0kw′=∞ .

For data set [2] the test system is unchanged. Nature of the data set: Fragmented inactivation model of GOT and DGOT (oil-immersion time–response data). It is filed as in vitro ADME. The following applies: for κ AM (rate constant of residual clearance) / κ c (rate constant of ester hydrolysis [Glu(OMe)^4]‐X → [Glu^4]‐X): K+-depolarized rat myometrium, oil-immersion, arithmetic mean ± SD; for κ AM (rate constant of residual clearance): assumption κ A ≈ κ M, runs in parentheses; for κ c (rate constant of ester hydrolysis [Glu(OMe)^4]‐X → [Glu^4]‐X): nonlinear regression Equation 17, number of computation runs in parentheses, 95% confidence limits in < >; for Δκ AM: difference of mean values κ AM (GOT) − κ AM (DGOT), expected rate constant of N-terminal (aminopeptidase) splitting; for Estimates of κ: κ AM + κ c: sum of fragments. The text has this:
This is an alternative to model represented by Equation 12b, whereε A (t), ε M (t) are response fractions of the respective primary agents and of its active metabolite(s) (16a) ε˙At=−κc+κAεAt, (16b) ε˙Mt=κcεAt−κMεMt.
Figure 6 depicts the proposed reaction scheme.
Δ α = α M /α A is the standardised biological activity (e.g., in IU/mg). Exponential constants for GOT and DGOT were obtained by the nonlinear regression analysis using numeric procedures described above and are summarized in Table 3.

For data set [3] the following is noted: rats, cited from earlier work.
For data set [4] the following is noted: human, in vivo; cited from earlier work.
Data set [5] deals with OXT-receptor compartment of the potassium depolarized rat myometrium.
Source text: as §1, §2, §3, §4, §5, §6
In data set [6] the test system is uterus. The following applies: cited from earlier work.

Where “and” joins values, the source holds several entries; their conditions need not be identical. Equal values may be shown once. Read-outs that look alike come from different tables or passages of the source. Numbered stars: 1 amine (or outer) side, 2 acyl side, 3 side chain; on linkers, the order of the positions; unused ones are H or OH. Bridge positions count the residues as written; N and C are the ends. Square brackets hold non-standard residues; d marks the D form. Peptide text beside a SMILES is read from it. Abu(4-yl) = O=C([C@H](CC[*:3])N[*:1])[*:2]; X1 = O=C([C@@H](O)CS[*:2])[*:1]; X2 = O=C(CCC[*:2])[*:1]

`CC[C@H](C)[C@@H]1NC(=O)[C@H](Cc2ccc(O)cc2)NC(=O)[C@@H](N)CSSC[C@@H](C(=O)N2CCC[C@H]2C(=O)N[C@@H](CC(C)C)C(=O)NNC(N)=O)NC(=O)[C@H](CC(N)=O)NC(=O)[C@H](CCC(N)=O)NC1=O` [AOT, [9‐Azaglycine]‐OXT]: in data set [1], the “Cumulative clearance k r + κ” value worked out at 0.278 ± 0.015 min⁻¹; the “k r (transport rate constant between receptor compartment and aqueous medium)” value turned out to be 0.158 ± 0.020 min⁻¹; the “κ Observed (irreversible clearance rate constant in the receptor compartment)” value (shortened to “κ Observed”) stood at 0.118 ± 0.008 min⁻¹; the “κ (N) − κ (D)” value was 0.076 min⁻¹.

As to `CC[C@H](C)[C@@H]1NC(=O)[C@H](Cc2ccc(O)cc2)NC(=O)CCSSC[C@@H](C(=O)N2CCC[C@H]2C(=O)N[C@@H](CC(C)C)C(=O)NCC(N)=O)NC(=O)[C@H](CC(N)=O)NC(=O)[C@H](CCC(=O)OC)NC1=O` [DGOT, [1‐β‐mercaptopropionic acid, 4‐glutamic acid‐δ‐methylester]‐OXT], in data set [2], the “κ AM (rate constant of residual clearance)” value is recorded as 0.053 ± 0.014 (14) <0.045; 0.061> min^−1, the “κ c (rate constant of ester hydrolysis [Glu(OMe)^4]‐X → [Glu^4]‐X)” value is recorded as 0.032 ± 0.011 (14) <0.025; 0.038> min^−1, the “Δκ AM” value came out at 0.081 min⁻¹ and the “Estimates of κ: κ AM + κ c” value is 0.085 min⁻¹. In data set [1], the “Cumulative clearance k r + κ” value came to 0.211 ± 0.027 min⁻¹; the “k r (transport rate constant between receptor compartment and aqueous medium)” value came to 0.107 ± 0.034 min⁻¹; the “κ Observed” value is 0.076 ± 0.018 min⁻¹ and 0.076 min⁻¹; the “κ (N) − κ (D)” value is 0.092 min⁻¹.

For `CC[C@H](C)[C@@H]1NC(=O)[C@H](Cc2ccc(O)cc2)NC(=O)CCSSC[C@@H](C(=O)N2CCC[C@H]2C(=O)N[C@@H](CC(C)C)C(=O)NNC(N)=O)NC(=O)[C@H](CC(N)=O)NC(=O)[C@H](CCC(N)=O)NC1=O` [DAOT, [1‐β‐mercaptopropionic acid, 9‐azaglycine]‐OXT], in data set [1], the “Cumulative clearance k r + κ” value came out at 0.194 ± 0.033 min⁻¹; the “k r (transport rate constant between receptor compartment and aqueous medium)” value came out at 0.139 ± 0.044 min⁻¹; the “κ Observed” value is 0.042 ± 0.015 min⁻¹; the “κ (N) − κ (D)” value was 0.076 min⁻¹.

With `CC[C@H](C)[C@@H]1NC(=O)[C@H](Cc2ccc(O)cc2)NC(=O)[C@@H](N)CSSC[C@@H](C(=O)N2CCC[C@H]2C(=O)N[C@@H](CC(C)C)C(=O)NCC(N)=O)NC(=O)[C@H](CC(N)=O)NC(=O)[C@H](CCC(=O)OC)NC1=O` [GOT, [4‐Glutamic acid‐δ‐methylester]‐OXT], in data set [2], the “κ AM (rate constant of residual clearance)” value is given as 0.134 ± 0.025 (12) <0.132; 0.135> min^−1, the “κ c (rate constant of ester hydrolysis [Glu(OMe)^4]‐X → [Glu^4]‐X)” value was 0.033 ± 0.012 (22) <0.028; 0.038> min^−1, the “Δκ AM” value worked out at 0.081 min⁻¹ and the “Estimates of κ: κ AM + κ c” value was 0.167 min⁻¹. Moreover, in data set [1], the “Cumulative clearance k r + κ” value was found to be 0.267 min⁻¹; the “k r (transport rate constant between receptor compartment and aqueous medium)” value turned out to be 0.108 min⁻¹; the “κ Observed” value turned out to be 0.166 min⁻¹; the “κ (N) − κ (D)” value is 0.092 min⁻¹.

`CC[C@H](C)[C@@H]1NC(=O)[C@H](Cc2ccc(O)cc2)NC(=O)[C@@H](N)CSSC[C@@H](C(=O)N2CCC[C@H]2C(=O)N[C@@H](CC(C)C)C(=O)NCC(N)=O)NC(=O)[C@H](CC(N)=O)NC(=O)[C@H](CCC(N)=O)NC1=O` [OXT, Oxytocin, reference compound]: the “half‐life” value in data set [3] (regardless of gender and reproductive cycle) is 1.65 min. The elimination rate constant in data set [3] (related to the half-life of 1.65 min) was 0.6 min⁻¹. The “half‐life in the blood plasma” value in data set [4] was 1.5 to 8 min. Besides, in data set [1], the “Cumulative clearance k r + κ” value worked out at 0.254 ± 0.028 min⁻¹; the “k r (transport rate constant between receptor compartment and aqueous medium)” value was 0.137 ± 0.030 min⁻¹; the “κ Observed” value was determined as 0.137 ± 0.025 min⁻¹; the “κ (N) − κ (D)” value was 0.088 min⁻¹.

For the molecule `CC[C@H](C)[C@@H]1NC(=O)[C@H](Cc2ccc(O)cc2)NC(=O)[C@@H](N)CCCC[C@@H](C(=O)N2CCC[C@H]2C(=O)N[C@@H](CC(C)C)C(=O)NCC(N)=O)NC(=O)[C@H](CC(N)=O)NC(=O)[C@H](CCC(N)=O)NC1=O` [C1,6OT, [1,6‐α′,α‐diaminosuberic acid]‐OXT], in data set [1], the “Cumulative clearance k r + κ” value was 0.263 ± 0.009 min⁻¹; the “k r (transport rate constant between receptor compartment and aqueous medium)” value worked out at 0.194 ± 0.011 min⁻¹; the “κ Observed” value amounted to 0.076 ± 0.005 min⁻¹.

For the molecule “[6,1‐(2‐Amino‐4‐thiasuberic acid)]‐OXT [DC6OT]”, in data set [5], the “Cumulative clearance k r + κ” value was 0.147 ± 0.015 min⁻¹ and the “κ Observed” value turned out to be 0.105 ± 0.008 min⁻¹.

For the molecule `CC[C@H](C)[C@@H]1NC(=O)[C@H](Cc2ccc(O)cc2)NC(=O)CCSSC[C@@H](C(=O)N2CCC[C@H]2C(=O)N[C@@H](CC(C)C)C(=O)NCC(N)=O)NC(=O)[C@H](CC(N)=O)NC(=O)[C@H](CCC(N)=O)NC1=O` [DOT, [1‐β‐mercaptopropionic acid]‐OXT], in data set [1], the “Cumulative clearance k r + κ” value came to 0.176 ± 0.024 min⁻¹; the “k r (transport rate constant between receptor compartment and aqueous medium)” value amounted to 0.149 ± 0.026 min⁻¹; the “κ Observed” value turned out to be 0.049 ± 0.021 min⁻¹; the “κ (N) − κ (D)” value is 0.088 min⁻¹.

Consider `CC[C@H](C)[C@@H]1NC(=O)[C@H](Cc2ccc(O)cc2)NC(=O)CCCSC[C@@H](C(=O)N2CCC[C@H]2C(=O)N[C@@H](CC(C)C)C(=O)NCC(N)=O)NC(=O)[C@H](CC(N)=O)NC(=O)[C@H](CCC(N)=O)NC1=O` [DC1OT, [1,6‐(2‐Amino‐4‐thiasuberic acid)]‐OXT] (YIQNCPLG-NH2; linker N-5 via X2), for which, in data set [1], the “Cumulative clearance k r + κ” value came to 0.160 ± 0.021 min⁻¹; the “k r (transport rate constant between receptor compartment and aqueous medium)” value was 0.097 ± 0.025 min⁻¹; the “κ Observed” value amounted to 0.102 ± 0.016 min⁻¹; the “κ (N) − κ (D)” value is 0.060 min⁻¹.

Regarding `CC[C@H](C)[C@@H]1NC(=O)[C@H](Cc2ccc(O)cc2)NC(=O)[C@@H](N)CCSC[C@@H](C(=O)N2CCC[C@H]2C(=O)N[C@@H](CC(C)C)C(=O)NCC(N)=O)NC(=O)[C@H](CC(N)=O)NC(=O)[C@H](CCC(N)=O)NC1=O` [Peptide C1OT, [6,1‐Cystathionine]‐OXT] (H-[Abu(4-yl)]YIQNCPLG-NH2; thioether 1-6), in data set [1], the “Cumulative clearance k r + κ” value was 0.272 ± 0.037 min⁻¹; the “k r (transport rate constant between receptor compartment and aqueous medium)” value was 0.116 ± 0.041 min⁻¹; the “κ Observed” value was 0.162 ± 0.032 min⁻¹; the “κ (N) − κ (D)” value was 0.060 min⁻¹.

In the case of [7‐glycine]‐oxytocin, the “ex vivo half‐life of uterotonic response as compared with oxytocin” value in data set [6] is “considerably shorter half‐life”.

As to `CC[C@H](C)[C@@H]1NC(=O)[C@H](Cc2ccc(O)cc2)NC(=O)[C@@H](O)CSSC[C@@H](C(=O)N2CCC[C@H]2C(=O)N[C@@H](CC(C)C)C(=O)NCC(N)=O)NC(=O)[C@H](CC(N)=O)NC(=O)[C@H](CCC(N)=O)NC1=O` [HOT, [1‐(2‐Hydroxy‐3‐β‐mercaptopropanoic acid)]‐OXT] (YIQNCPLG-NH2; linker N-5 via X1), in data set [1], the “Cumulative clearance k r + κ” value came out at 0.289 ± 0.010 min⁻¹; the “k r (transport rate constant between receptor compartment and aqueous medium)” value worked out at 0.139 ± 0.012 min⁻¹; the “κ Observed” value was determined as 0.141 ± 0.008 min⁻¹.
